Where two headings read alike, the source gives them in different places.
Experiments:
[1] = system: TK6 cells; assay: MTT assay of cell growth in TK6 cells; assay type: cell-based, human; conditions: read-out: IC50 on cell growth
[2] = system: TK6/SULT vector cells; assay type: cell-based, human
[3] = target: T1, SULT1A1 (Homo sapiens, UniProt P50225)
[4] = target: T2, SULT1C4 (Homo sapiens, UniProt O75897)
[5] = target: T3, SULT1E1 (Homo sapiens, UniProt P49888)
T3 sequence (P49888 1-294): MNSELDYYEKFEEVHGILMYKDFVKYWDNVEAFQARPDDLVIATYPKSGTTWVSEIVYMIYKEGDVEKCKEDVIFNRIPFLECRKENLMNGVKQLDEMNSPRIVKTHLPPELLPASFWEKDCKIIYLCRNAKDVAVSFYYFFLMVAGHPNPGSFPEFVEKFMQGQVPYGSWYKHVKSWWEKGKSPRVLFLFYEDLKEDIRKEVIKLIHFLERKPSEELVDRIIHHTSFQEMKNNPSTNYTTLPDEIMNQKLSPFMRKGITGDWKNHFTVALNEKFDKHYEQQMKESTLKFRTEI

[6] = target: T4, SULT2A1 (Homo sapiens, UniProt Q06520)
T4 sequence (Q06520 1-285): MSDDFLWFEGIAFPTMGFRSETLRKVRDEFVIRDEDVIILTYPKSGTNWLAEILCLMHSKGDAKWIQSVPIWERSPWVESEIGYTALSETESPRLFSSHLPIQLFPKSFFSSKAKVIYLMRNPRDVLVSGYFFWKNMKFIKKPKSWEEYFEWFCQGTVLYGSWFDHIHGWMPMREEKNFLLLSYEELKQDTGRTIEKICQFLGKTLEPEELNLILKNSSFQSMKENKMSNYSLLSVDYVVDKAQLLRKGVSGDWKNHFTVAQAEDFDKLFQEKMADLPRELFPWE

[7] = system: TK6/SULT vector cells; conditions: 45 µM
[8] = system: TK6/SULT2A1 cells; conditions: 90 µM
[9] = system: TK6/SULT2A1 cells; assay: MTT assay of cell growth in TK6/SULT2A1 cells; conditions: for IC50: read-out: IC50 on cell growth
[10] = system: TK6/SULT vector cells; assay: MTT assay of cell growth in TK6/SULT vector cells; conditions: for IC50: read-out: IC50 on cell growth
[11] = Sulfonation activity of pooled human liver cytosols; conditions: Human liver cytosol; 1 h at 37 °C; mean ± s.d., three experiments
[12] = target: T1, SULT1A1; assay: Sulfonation by cytosol of HEK293/SULT1A1-overexpressing cells; conditions: SULT1A1 cytosol; 1 h at 37 °C; mean ± s.d., three experiments
[13] = target: T2, SULT1C4; assay: Sulfonation by cytosol of HEK293/SULT1C4-overexpressing cells; conditions: SULT1C4 cytosol; 1 h at 37 °C; mean ± s.d., three experiments
[14] = target: T3, SULT1E1; assay: Sulfonation by cytosol of HEK293/SULT1E1-overexpressing cells; conditions: SULT1E1 cytosol; 1 h at 37 °C; mean ± s.d., three experiments
[15] = Stability of 12-sulfoxynevirapine in buffer by reversed-phase HPLC; assay type: physicochemical; conditions: up to 2 months
[16] = system: human hepatoma HepG2 cells; conditions: 48 h exposure, ref [30]; cited from earlier work
[17] = system: immortalized normal liver THLE2 cells; conditions: 48 h exposure, ref [30]; cited from earlier work
[18] = target: T3, SULT1E1; assay: Inhibition of SULT1E1-catalyzed sulfonation of triclosan; assay type: biochemical; conditions: 10 μM pentachlorophenol, preliminary experiments
[19] = target: T4, SULT2A1; assay: Inhibition of SULT2A1-catalyzed sulfonation of triclosan; assay type: biochemical; conditions: 10 μM pentachlorophenol, preliminary experiments
[20] = target: SULT1C2 (Homo sapiens, UniProt O00338); assay: Sulfonation by cytosol of HEK293/SULT1C2-overexpressing cells; assay type: in vitro ADME; conditions: 250 μM [14C]triclosan, 0.5 mg cytosolic protein, 500 μM PAPS, pH 7.2, 37 °C, 2 h
Sequence of SULT1C2 (O00338 whole entry): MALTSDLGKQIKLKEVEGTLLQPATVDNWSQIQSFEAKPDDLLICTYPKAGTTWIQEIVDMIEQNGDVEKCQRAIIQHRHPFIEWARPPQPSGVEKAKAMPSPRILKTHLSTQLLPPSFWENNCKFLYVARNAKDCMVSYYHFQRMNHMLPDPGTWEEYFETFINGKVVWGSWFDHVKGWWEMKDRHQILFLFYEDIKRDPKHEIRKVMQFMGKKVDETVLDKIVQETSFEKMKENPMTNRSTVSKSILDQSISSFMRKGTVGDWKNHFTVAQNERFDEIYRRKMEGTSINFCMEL

[21] = target: T5, SULT2B1 (Homo sapiens, UniProt O00204); assay: Sulfonation by cytosol of HEK293/SULT2B1-overexpressing cells; assay type: in vitro ADME; conditions: 250 μM [14C]triclosan, 0.5 mg cytosolic protein, 500 μM PAPS, pH 7.2, 37 °C, 2 h
T5 sequence (O00204 1-365): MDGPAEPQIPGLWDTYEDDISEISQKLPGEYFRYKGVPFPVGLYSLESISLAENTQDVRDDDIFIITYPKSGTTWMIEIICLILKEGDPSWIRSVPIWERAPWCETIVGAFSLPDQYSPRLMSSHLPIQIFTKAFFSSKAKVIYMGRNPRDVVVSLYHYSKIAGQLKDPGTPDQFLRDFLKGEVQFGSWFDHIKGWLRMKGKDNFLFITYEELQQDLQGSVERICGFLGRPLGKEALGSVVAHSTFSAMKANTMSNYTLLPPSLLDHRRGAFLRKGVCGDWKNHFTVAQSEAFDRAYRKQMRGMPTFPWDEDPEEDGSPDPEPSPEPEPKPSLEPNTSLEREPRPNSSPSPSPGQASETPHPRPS

[22] = target: T6, SULT4A1 (Homo sapiens, UniProt Q9BR01); assay: Sulfonation by cytosol of HEK293/SULT4A1-overexpressing cells; assay type: in vitro ADME; conditions: 250 μM [14C]triclosan, 0.5 mg cytosolic protein, 500 μM PAPS, pH 7.2, 37 °C, 2 h
T6 sequence (Q9BR01 1-284): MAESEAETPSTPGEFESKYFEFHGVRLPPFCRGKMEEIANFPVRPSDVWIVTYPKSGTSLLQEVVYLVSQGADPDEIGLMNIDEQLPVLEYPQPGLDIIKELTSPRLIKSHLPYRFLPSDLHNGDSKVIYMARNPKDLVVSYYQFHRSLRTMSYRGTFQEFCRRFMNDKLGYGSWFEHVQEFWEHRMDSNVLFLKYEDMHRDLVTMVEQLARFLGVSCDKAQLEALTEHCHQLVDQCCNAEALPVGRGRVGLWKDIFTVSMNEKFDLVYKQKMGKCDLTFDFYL

[23] = target: T7, SULT6B1 (Homo sapiens, UniProt Q6IMI4); assay: Sulfonation by cytosol of HEK293/SULT6B1-overexpressing cells; assay type: in vitro ADME; conditions: 250 μM [14C]triclosan, 0.5 mg cytosolic protein, 500 μM PAPS, pH 7.2, 37 °C, 2 h
T7 sequence (Q6IMI4 1-303): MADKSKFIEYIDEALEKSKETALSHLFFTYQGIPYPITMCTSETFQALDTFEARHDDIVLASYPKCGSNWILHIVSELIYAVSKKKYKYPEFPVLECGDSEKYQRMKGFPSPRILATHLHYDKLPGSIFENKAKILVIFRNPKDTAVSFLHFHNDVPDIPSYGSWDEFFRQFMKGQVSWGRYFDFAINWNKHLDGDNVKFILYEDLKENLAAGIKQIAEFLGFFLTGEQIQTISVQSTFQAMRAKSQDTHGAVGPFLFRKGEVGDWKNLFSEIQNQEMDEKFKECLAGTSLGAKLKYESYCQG

[24] = target: T8, cytosols from TK6/SULT2A1 cells (Homo sapiens, UniProt Q06520); assay: Sulfonation of triclosan by cytosols from TK6/SULT2A1 cells; assay type: in vitro ADME; conditions: not in TK6 and TK6/SULT vector cytosols
T8 sequence (Q06520 1-285): T4 sequence (Q06520 1-285)

T2 sequence (O75897 whole entry): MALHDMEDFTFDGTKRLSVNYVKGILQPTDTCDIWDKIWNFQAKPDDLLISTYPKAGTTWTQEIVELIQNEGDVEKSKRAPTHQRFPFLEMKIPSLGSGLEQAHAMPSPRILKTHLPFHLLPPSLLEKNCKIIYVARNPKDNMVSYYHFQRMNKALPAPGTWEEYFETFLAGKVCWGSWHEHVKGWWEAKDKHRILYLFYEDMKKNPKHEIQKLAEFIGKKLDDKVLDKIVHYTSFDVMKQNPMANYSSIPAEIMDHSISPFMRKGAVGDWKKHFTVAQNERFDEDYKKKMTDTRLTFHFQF
T1 sequence (P50225 whole entry): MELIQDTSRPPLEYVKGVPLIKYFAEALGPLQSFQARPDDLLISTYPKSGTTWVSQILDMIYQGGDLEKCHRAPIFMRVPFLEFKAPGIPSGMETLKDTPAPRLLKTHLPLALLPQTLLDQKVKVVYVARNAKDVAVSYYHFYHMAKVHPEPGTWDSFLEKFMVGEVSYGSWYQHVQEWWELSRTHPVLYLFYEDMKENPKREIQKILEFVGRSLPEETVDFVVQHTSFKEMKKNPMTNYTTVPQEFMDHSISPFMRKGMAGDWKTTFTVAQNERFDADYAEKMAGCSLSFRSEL

With `O=C1Nc2c(CO)ccnc2N(C2CC2)c2ncccc21` [12-Hydroxynevirapine] the IC50 ([1]; TK6 cells, 48 h exposure, MTT assay) was 42.6 µM, the “Formation of 12-sulfoxynevirapine in treated cells” value [2] was “not detected” and the Km [3] was 787 ± 62.2 µM. The Km [4] was 260 ± 38.9 µM, the Km [5] was 216 ± 34 µM and the Km [6] was 545 ± 68.5 µM. The Cell viability [7] was “approximately 50%”, the Cell viability [8] was “approximately 50%” and the IC50 ([9]; TK6/SULT2A1 cells, 48 h exposure, MTT assay) was 89.9 µM. The IC50 ([10]; TK6/SULT vector cells, 48 h exposure, MTT assay) was 45.1 µM, the Vmax [11] was 71.0 ± 4.5 pmol min^−1 cytosolic protein mg^−1 and the Vmax [12] was 71.2 ± 2.0 pmol min^−1 cytosolic protein mg^−1. For the same molecule, the Vmax [13] was 56.0 ± 2.2 pmol min^−1 cytosolic protein mg^−1 and the Vmax [14] was 71.0 ± 2.8 pmol min^−1 cytosolic protein mg^−1.

In the case of `O=C1Nc2c(COS(=O)(=O)O)ccnc2N(C2CC2)c2ncccc21` [12-Sulfoxynevirapine], the Stability in buffer ([15]; 50 mM Bis-Tris, pH 7.1, room temperature) is reported as “stable” and the Stability in buffer ([15]; 100 mM sodium phosphate, pH 7.2, room temperature) is reported as “stable”.

For `Cc1ccnc2c1NC(=O)c1cccnc1N2C1CC1` [Nevirapine, 11-cyclopropyl-5,11-dihydro-4-methyl-6H-dipyrido [3,2-b:2′,3′-e][1, 4]diazepin-6-one], the IC50 ([1]; Homo sapiens, TK6, 48 h) is given as ~130 µM, the “Concentration that inhibited cell growth” value [16] is given as “approximately 1.0 mM” and the “Concentration that inhibited cell growth” value [17] is given as “approximately 1.0 mM”. The IC50 ([9]; Homo sapiens, 48 h) was ~130 µM and the IC50 ([10]; Homo sapiens, 48 h) was ~130 µM.

In the case of `Oc1c(Cl)c(Cl)c(Cl)c(Cl)c1Cl` [Pentachlorophenol, pentachlorophenol], the “Triclosan being sulfated in the presence of inhibitor” value [18] is reported as 44%, the “Triclosan being sulfated in the presence of inhibitor” value [19] is reported as 12% and the “Cytotoxicity of the SULT substrate alone” value ([9]; TK6/SULT2A1 cells, tested concentration (DHEA 5 μM, pentachlorophenol 10 μM), 48 h, MTT) is reported as “not cytotoxic”. For the same molecule, the “Cytotoxicity of the SULT substrate alone” value ([10]; TK6/SULT vector cells, tested concentration (DHEA 5 μM, pentachlorophenol 10 μM), 48 h, MTT) was “not cytotoxic”.

For `Oc1cc(Cl)ccc1Oc1ccc(Cl)cc1Cl` [Triclosan, triclosan], the Sulfonation of triclosan [20] was 28.5 ± 0.2 pmol min^−1 mg cytosolic protein^−1, the Sulfonation of triclosan [21] was 46.6 ± 1.9 pmol min^−1 mg cytosolic protein^−1 and the Sulfonation of triclosan [22] was 50.4 ± 0.6 pmol min^−1 mg cytosolic protein^−1. The Sulfonation of triclosan [23] was 33.8 ± 1.0 pmol min^−1 mg cytosolic protein^−1 and the “Sulfonation activity towards triclosan” value [24] was “showed sulfonation activity”.
